Reference: US20140073639A1 (priority 2012, published 2014)
Values after ≈ are worked out from the molar mass of the structure shown.

Columns and labels:
[1] = format: cell-based
B. Anthracis = assay: microbe, parasite or virus in culture; format: cell-based; conditions: for inhibition at 10 µM / inhibition at 30 µM / inhibition at 3 µM: Bacillus anthracis; for inhibition at 10 µM: read-out: B. Anthracis 10 μM (growth inhibition); for inhibition at 30 µM: read-out: B. Anthracis 30 μM (growth inhibition); for inhibition at 3 µM: read-out: B. Anthracis 3 μM (growth inhibition)
S. MRSA = assay: microbe, parasite or virus in culture; format: cell-based; conditions: for inhibition at 10 µM / inhibition at 30 µM / inhibition at 3 µM: Staphylococcus aureus, MRSA; for inhibition at 10 µM: read-out: S. MRSA 10 μM (growth inhibition); for inhibition at 30 µM: read-out: S. MRSA 30 μM (growth inhibition); for inhibition at 3 µM: read-out: S. MRSA 3 μM (growth inhibition)

| SMILES | MIC, 25% Serum [1] [µM] | MIC, No Serum [1] [µM] | inhibition at 10 µM (B. Anthracis; 10 μM) [%] | inhibition at 30 µM (B. Anthracis; 30 μM) [%] | inhibition at 10 µM (S. MRSA; 10 μM) [%] | inhibition at 30 µM (S. MRSA; 30 μM) [%] | inhibition at 3 µM (B. Anthracis; 3 μM) [%] | inhibition at 3 µM (S. MRSA; 3 μM) [%] | B. Anthracis 3 μM (growth inhibition) (B. Anthracis; 3 μM) | B. Anthracis 10 μM (growth inhibition) (B. Anthracis; 10 μM) | B. Anthracis 30 μM (growth inhibition) (B. Anthracis; 30 μM) | S. MRSA 3 μM (growth inhibition) (S. MRSA; 3 μM) | S. MRSA 10 μM (growth inhibition) (S. MRSA; 10 μM) | S. MRSA 30 μM (growth inhibition) (S. MRSA; 30 μM) |
| --- | --- | --- | --- | --- | --- | --- | --- | --- | --- | --- | --- | --- | --- | --- |
| O=C1Nc2ccc(Br)cc2/C1=C1/NC(=S)N(C(Cc2ccccc2)C(=O)O)C1=O (stereo not drawn) [Cmpd 31] | >250 | 250 (≈ 118 µg/mL) | 2.5 | 88 | -8 | -2.22 |  |  |  |  |  |  |  |  |
| O=C1Nc2cc(Cl)c(Br)cc2/C1=C1/NC(=S)N(C(Cc2ccccc2)C(=O)O)C1=O (stereo not drawn) [Cmpd 32] | >250 |  | 40.2 | 98.8 | -19.4 | 93.8 | 11.3 | -11.9 |  |  |  |  |  |  |
| O=C(O)C(Cc1ccccc1)N1C(=O)/C(=C\c2ccc(-c3ccc(Cl)cc3)s2)NC1=S (stereo not drawn) [Cmpd 35] |  |  | 100 | 100 | -1.47 | 91 | -5.4 | -2.94 |  |  |  |  |  |  |
| O=C(O)C(Cc1ccccc1)N1C(=O)/C(=C\c2ccc(-c3ccc(Br)cc3)s2)NC1=S (stereo not drawn) [Cmpd 36] |  |  | 97.7 | 96.7 | 91.1 | 91.1 | 76.9 | -19.2 |  |  |  |  |  |  |
| O=C(O)C(Cc1ccccc1)N1C(=O)/C(=C\c2ccc(Br)s2)NC1=S (stereo not drawn) [Cmpd 37] |  |  |  | 0 |  | -6.27 |  |  |  |  |  |  |  |  |
| O=C(O)C(Cc1ccccc1)N1C(=O)/C(=C\c2ccc(-c3ccc(Cl)cc3)o2)NC1=S (stereo not drawn) [Cmpd 38] | >250 | 62.5 (≈ 28.3 µg/mL) | 68.9 | 99.7 | -16.9 | 86.6 | 4.99 | -13.5 |  |  |  |  |  |  |
| O=C(O)C(Cc1ccccc1)N1C(=O)/C(=C\c2ccc(-c3ccc(Br)cc3)o2)NC1=S (stereo not drawn) [Cmpd 39] |  |  | 98.8 | 98.8 | 92.5 | 95.4 | 72.6 | -9.55 |  |  |  |  |  |  |
| O=C(O)C(Cc1ccccc1)N1C(=O)/C(=C\c2ccc(-c3ccc(Br)c(Cl)c3)o2)NC1=S (stereo not drawn) [Cmpd 40] |  |  | 98.1 | 98.1 | 95.7 | 95.7 | 98.1 | 17.9 |  |  |  |  |  |  |
| O=C(O)C(Cc1ccccc1)N1C(=O)/C(=C\c2ccc(-c3ccc(Br)c(Cl)c3)s2)NC1=S (stereo not drawn) [Cmpd 41] |  |  | 8.15 | 94.5 | -7.45 | -0.89 | 19.5 |  |  |  |  |  |  |  |
| O=C(O)C(Cc1ccccc1)N1C(=O)/C(=C\c2ccc(-c3ccc(Cl)c(Cl)c3)o2)NC1=S (stereo not drawn) [Cmpd 42] |  |  | 99.5 | 96.7 | 98.7 | 94.5 | 96.2 |  |  |  |  |  |  |  |
| O=C(O)C(Cc1ccccc1)N1C(=O)/C(=C\c2ccc(-c3ccc(OC(F)(F)F)cc3)o2)NC1=S (stereo not drawn) [Cmpd 43] |  |  | 96.7 | 96.6 | -6.26 | 95.2 | 8.01 | -1.32 |  |  |  |  |  |  |
| CCC(C(=O)O)N1C(=O)/C(=C\c2ccc(-c3ccc(Cl)c(Cl)c3)o2)NC1=S (stereo not drawn) [Cmpd 44] | >250 | 250 (≈ 106 µg/mL) | 97.2 | 94 | 4.53 | 92.9 | 4.13 | -2.47 |  |  |  |  |  |  |
| O=C(O)C(Cc1ccccc1)N1C(=O)/C(=C\c2ccc(-c3ccc(I)cc3)o2)NC1=S (stereo not drawn) [Cmpd 45] |  |  | 97.4 | 96.4 | 88.2 | 92.7 | 49.2 | -1.84 |  |  |  |  |  |  |
| O=C(O)C(Cc1ccccc1)N1C(=O)/C(=C\c2ccc(-c3ccc(Cl)c(Cl)c3)o2)NC1=S (stereo not drawn) [Cmpd 46] | >250 | 15.6 (≈ 7.6 µg/mL) |  |  |  |  |  |  | 108.4 | 108.46 | 106.96 | −17.39 | 93.71 | 103.37 |
| O=C(O)[C@@H](Cc1ccccc1)N1C(=O)/C(=C\c2ccc(-c3ccc(Cl)c(Cl)c3)o2)NC1=S [Cmpd 47] | 250 (≈ 122 µg/mL) | 7.8 (≈ 3.8 µg/mL) | 107 | 107 | 84.4 | 103 | 9.41 | -13.8 |  |  |  |  |  |  |
| CC(=O)C(Cc1ccccc1)N1C(=O)/C(=C2/C(=O)Nc3cc(Cl)c(Cl)cc32)NC1=S (stereo not drawn) [Cmpd 49] |  |  | -7.49 | 97.2 | -20.3 | -26.3 | 1.73 | -7.73 |  |  |  |  |  |  |
| O=C(O)C(Cc1ccccc1)N1C(=O)/C(=C\c2ccc(-c3ccc(Cl)c(Cl)c3)s2)NC1=S (stereo not drawn) [Cmpd 50] |  |  | 108 | 94.2 | 14.3 | 35.6 | 1.03 | -14.6 |  |  |  |  |  |  |
| O=C(O)[C@H](Cc1ccccc1)N1C(=O)/C(=C\c2ccc(-c3cc(Cl)cc(Cl)c3)o2)NC1=S [Cmpd 51] |  |  | -3.08 | 99.3 | -7.03 | 85.3 | -0.16 | -0.61 |  |  |  |  |  |  |
| CNC(=O)C(Cc1ccccc1)N1C(=O)/C(=C\c2ccc(-c3ccc(Cl)c(Cl)c3)o2)NC1=S (stereo not drawn) [Cmpd 56] | >250 | >250 |  |  |  |  |  |  |  |  |  |  |  |  |
| O=C(O)C(Cc1ccccc1)N1C(=O)CNC1=S (stereo not drawn) [Cmpd 61] | >250 | >250 |  |  |  |  |  |  |  |  |  |  |  |  |
| O=C(O)C(Cc1ccccc1)N1C(=O)/C(=C\c2ccco2)NC1=S (stereo not drawn) [Cmpd 62] | >250 | >250 |  |  |  |  |  |  |  |  |  |  |  |  |
